According to patent US9187472B2 (AbbVie Inc., priority 2012, dated 2015):
pIC50: −log10 of the molar value.

Tested on: PC3 cells
Experiment: NAMPT Cell Proliferation Assay
Type: cell-based
Details: Homo sapiens, PC-3, 120 h, 5 days incubation, cell viability by Cell Titer Glo
In short: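 IC50 values derive from sigmoidal dose-response fits of percent inhibition of PC3 viability, measured by luminescence after 5 days of compound treatment. Cells (500/well, RPMI containing 10% heat-inactivated FBS) are allowed to attach overnight, and compounds are tested at 10-fold dilutions between 10 μM and 1×10^−5 μM.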

| SMILES | pIC50 |
| --- | --- |
| COC1CCC(C(=O)N2CCC(c3ccc(C(=O)NCc4ccn5ccnc5c4)cc3)CC2)CC1 (stereo not drawn) [Example 977, N-(imidazo[1,2-a]pyridin-7-ylmethyl)-4-{1-[(4-methoxycyclohexyl)carbonyl]piperidin-4-yl}benzamide] | 8.58 |
| N#Cc1cc(F)c(C(=O)N2CCC(c3ccc(NC(=O)NCc4ccn5ccnc5c4)cc3)CC2)c(F)c1 [Example 1133, 1-{4-[1-(4-cyano-2,6-difluorobenzoyl)piperidin-4-yl]phenyl}-3-(imidazo[1,2-a]pyridin-7-ylmethyl)urea] | 9.00 |
| CC[C@H](C)C(=O)N1CCC(c2ccc(NC(=O)NCc3ccn4ccnc4c3)c(F)c2)CC1 [Example 1073, 1-(2-fluoro-4-{1-[(2S)-2-methylbutanoyl]piperidin-4-yl}phenyl)-3-(imidazo[1,2-a]pyridin-7-ylmethyl)urea] | 8.41 |
| CC(C)C(=O)N1CCC(c2ccc(NC(=O)Cc3ccn4ccnc4c3)cc2)CC1 [Example 903, 2-(imidazo[1,2-a]pyridin-7-yl)-N-{4-[1-(2-methylpropanoyl)piperidin-4-yl]phenyl}acetamide] | 7.45 |
| CC(C)(C)OC(=O)N1CCC(c2ccc(NC(=O)Cc3ccc4nccn4c3)cc2)CC1 [Example 862, tert-butyl 4-{4-[(imidazo[1,2-a]pyridin-6-ylacetyl)amino]phenyl}piperidine-1-carboxylate] | 9.11 |
| O=C(NCc1ccn2ccnc2c1)Nc1ccc(C2CCN(C(=O)c3cccc4ncsc34)CC2)cc1 [Example 1060, 1-{4-[1-(1,3-benzothiazol-7-ylcarbonyl)piperidin-4-yl]phenyl}-3-(imidazo[1,2-a]pyridin-7-ylmethyl)urea] | 8.64 |
| CC(C)=CC(=O)N1CCC(c2ccc(C(=O)NCc3ccn4ccnc4c3)cc2)CC1 [Example 914, N-(imidazo[1,2-a]pyridin-7-ylmethyl)-4-[1-(3-methylbut-2-enoyl)piperidin-4-yl]benzamide] | 7.11 |
| CNCCOC12CC3(C)CC(C)(CC(Cn4ncc(-c5ccc(C(=O)NCc6ccn7ccnc7c6)s5)c4C)(C3)C1)C2 [Example 1157, 5-[1-({3,5-dimethyl-7-[2-(methylamino)ethoxy]tricyclo[3.3.1.1^3,7]dec-1-yl}methyl)-5-methyl-1H-pyrazol-4-yl]-N-(imidazo[1,2-a]pyridin-7-ylmethyl)thiophene-2-carboxamide] | 7.27 |
| O=C(NCc1ccn2ccnc2c1)c1ccc(C2CCN(C(=O)c3cccc4c3OCCO4)CC2)cc1 [Example 978, 4-[1-(2,3-dihydro-1,4-benzodioxin-5-ylcarbonyl)piperidin-4-yl]-N-(imidazo[1,2-a]pyridin-7-ylmethyl)benzamide] | 8.69 |
| O=C(NCc1ccn2ccnc2c1)c1ccc(C2=CCN(c3ccncn3)CC2)cc1 [Example 1154, N-(imidazo[1,2-a]pyridin-7-ylmethyl)-4-[1-(pyrimidin-4-yl)-1,2,3,6-tetrahydropyridin-4-yl]benzamide] | 6.77 |
| Cc1cc(Cl)c(C(=O)N2CCC(c3ccc(NC(=O)NCc4ccn5ccnc5c4)cc3)CC2)c(C)n1 [Example 1041, 1-(4-{1-[(4-chloro-2,6-dimethylpyridin-3-yl)carbonyl]piperidin-4-yl}phenyl)-3-(imidazo[1,2-a]pyridin-7-ylmethyl)urea] | 8.62 |
| CC1Cc2cccc(C(=O)N3CCC(c4ccc(C(=O)NCc5ccn6ccnc6c5)cc4)CC3)c2O1 (stereo not drawn) [Example 1107, N-(imidazo[1,2-a]pyridin-7-ylmethyl)-4-{1-[(2-methyl-2,3-dihydro-1-benzofuran-7-yl)carbonyl]piperidin-4-yl}benzamide] | 8.65 |
| O=C(NCc1ccn2ccnc2c1)c1ccc(C2CCN(C(=O)c3ccc4c(c3)CCCO4)CC2)cc1 [Example 970, 4-[1-(3,4-dihydro-2H-chromen-6-ylcarbonyl)piperidin-4-yl]-N-(imidazo[1,2-a]pyridin-7-ylmethyl)benzamide] | 7.96 |
| CC(Oc1ccccc1)C(=O)N1CCC(c2ccc(C(=O)NCc3ccn4ccnc4c3)cc2)CC1 (stereo not drawn) [Example 930, N-(imidazo[1,2-a]pyridin-7-ylmethyl)-4-[1-(2-phenoxypropanoyl)piperidin-4-yl]benzamide] | 8.68 |
| Cn1nc2c(c1C(=O)N1CCC(c3ccc(NC(=O)NCc4ccn5ccnc5c4)cc3)CC1)CCCC2 [Example 1014, 1-(imidazo[1,2-a]pyridin-7-ylmethyl)-3-(4-{1-[(2-methyl-4,5,6,7-tetrahydro-2H-indazol-3-yl)carbonyl]piperidin-4-yl}phenyl)urea] | 8.68 |
| Cc1ccc(F)c(C(=O)N2CCC(c3ccc(C(=O)NCc4ccn5ccnc5c4)cc3)CC2)n1 [Example 963, 4-{1-[(3-fluoro-6-methylpyridin-2-yl)carbonyl]piperidin-4-yl}-N-(imidazo[1,2-a]pyridin-7-ylmethyl)benzamide] | 7.71 |
| O=C(NCc1ccn2ccnc2c1)Nc1ccc(C2CCN(C(=O)c3cccc4ccncc34)CC2)cc1 [Example 1049, 1-(imidazo[1,2-a]pyridin-7-ylmethyl)-3-{4-[1-(isoquinolin-8-ylcarbonyl)piperidin-4-yl]phenyl}urea] | 8.62 |
| O=C(NCc1ccn2ccnc2c1)c1ccc(-c2cc(C3CC3)nn2Cc2ccccc2)s1 [Example 857, 5-(1-benzyl-3-cyclopropyl-1H-pyrazol-5-yl)-N-(imidazo[1,2-a]pyridin-7-ylmethyl)thiophene-2-carboxamide] | 8.81 |
| CC(C)c1ncncc1C(=O)N1CCC(c2ccc(NC(=O)NCc3ccn4ccnc4c3)cc2)CC1 [Example 1140, 1-(imidazo[1,2-a]pyridin-7-ylmethyl)-3-[4-(1-{[4-(propan-2-yl)pyrimidin-5-yl]carbonyl}piperidin-4-yl)phenyl]urea] | 8.23 |
| O=C(NCc1ccc2ncnn2c1)c1ccc(C2CCN(C(=O)C3CCOCC3)CC2)s1 [Example 849, 5-[1-(tetrahydro-2H-pyran-4-ylcarbonyl)piperidin-4-yl]-N-([1,2,4]triazolo[1,5-a]pyridin-6-ylmethyl)thiophene-2-carboxamide] | 7.20 |
| N#Cc1ccc(C(=O)N2CCC(c3ccc(NC(=O)NCc4ccn5ccnc5c4)cc3)CC2)s1 [Example 1131, 1-(4-{1-[(5-cyanothiophen-2-yl)carbonyl]piperidin-4-yl}phenyl)-3-(imidazo[1,2-a]pyridin-7-ylmethyl)urea] | 7.46 |
| Cn1nc2c(c1C(=O)N1CCC(c3ccc(C(=O)NCc4ccn5ccnc5c4)cc3)CC1)CCCC2 [Example 961, N-(imidazo[1,2-a]pyridin-7-ylmethyl)-4-{1-[(2-methyl-4,5,6,7-tetrahydro-2H-indazol-3-yl)carbonyl]piperidin-4-yl}benzamide] | 8.05 |
| COc1ccc(C(=O)N2CCC(c3ccc(NC(=O)NCc4ccn5ccnc5c4)cc3)CC2)nc1OC [Example 1148, 1-(4-{1-[(5,6-dimethoxypyridin-2-yl)carbonyl]piperidin-4-yl}phenyl)-3-(imidazo[1,2-a]pyridin-7-ylmethyl)urea] | 8.57 |
| CCc1c(C(=O)N2CCC(c3ccc(NC(=O)NCc4ccn5ccnc5c4)cc3)CC2)nnn1CC [Example 1128, 1-(4-{1-[(1,5-diethyl-1H-1,2,3-triazol-4-yl)carbonyl]piperidin-4-yl}phenyl)-3-(imidazo[1,2-a]pyridin-7-ylmethyl)urea] | 8.22 |
